The values below come from patent publication US5164388A, “Heterocyclic peptide renin inhibitors” (Abbott Laboratories, priority 1991, dated 1992).

Each structure is given as a SMILES string. pIC50: −log10 of the molar value.

For the experiment, the target named is T1, human renal renin (Homo sapiens, UniProt P00797).
T1 construct: human renal renin, free from acid proteolytic activity; from tissue
T1 sequence (P00797 67-406): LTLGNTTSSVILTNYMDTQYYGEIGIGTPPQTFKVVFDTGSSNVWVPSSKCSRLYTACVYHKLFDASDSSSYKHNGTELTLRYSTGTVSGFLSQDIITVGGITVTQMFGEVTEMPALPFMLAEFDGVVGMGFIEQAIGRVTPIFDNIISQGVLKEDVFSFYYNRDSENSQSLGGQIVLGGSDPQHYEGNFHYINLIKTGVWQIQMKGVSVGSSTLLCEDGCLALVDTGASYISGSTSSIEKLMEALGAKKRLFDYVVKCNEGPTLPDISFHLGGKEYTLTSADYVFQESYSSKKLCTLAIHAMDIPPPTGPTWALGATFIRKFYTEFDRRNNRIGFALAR
Description: Inhibition of human renal renin in vitro (angiotensin I formed, radioimmunoassay). The format is biochemical. Particulars: human angiotensinogen substrate, 37 degrees C., pH 6.0. The procedure:
The novel compounds of the present invention are also useful for treating congestive heart failure. […] At the end of the incubation, the amount of angiotensin I formed is measured by radioimmunoassay and the molar concentration required to cause 50% inhibition, expressed as the IC50, is calculated.
`Cc1ccc(S(=O)(=O)N2CCN(C(Cc3cscn3)C(=O)N[C@@H](CC3CCCCC3)[C@@H](O)[C@@H]3C[C@H](C)CO3)C(=O)[C@H]2Cc2ccccc2)cc1` (stereo partly drawn) [Example 140, 3-(S-Thiazolyl)-2-(3R-benzyl-4-N-p-toluene-sulfonyl-2-keto-piperazin-1-yl)-propionic acid Amide of 2(S)-(2(S)-Amino-3-cyclohexyl-1(R)-hydroxy)propyl-4(S)-methyltetrahydrofuran] gave a pIC50 of 8.47.
In the case of `CCCCNC(=O)[C@H](C[C@H](O)[C@H](CC1CCCCC1)NC(=O)C(Cc1cscn1)N1CCN(S(=O)(=O)N2CCN(C)CC2)[C@H](Cc2ccccc2)C1=O)C(C)C` (stereo partly drawn) [Example 141] it was 8.82; in that of `CCN1CC(C(O)C(CC2CCCCC2)NC(=O)C(Cc2nccn2C(=O)OC(C)(C)C)N2CCN(S(=O)(=O)N3CCN(C)CC3)C(Cc3ccccc3)C2=O)OC1=O` [Example 142, 3-(3N-tert-butyloxycarbonyl-2-imidazolyl)-2-(3R-benzyl-4-N-(N-methylpiperazyl)-sulfonyl-2-keto-piperazin-1-yl)-propoionic acid Amide of (2'S,1'R,5S)-3-Ethyl-5-(1'-hydroxy-2'-amino-3'-cyclohexylpropyl)oxazolidin-2-one], 8.30.
On to `CCN1C[C@@H]([C@H](O)[C@H](CC2CCCCC2)NC(=O)C(Cc2ncc[nH]2)N2CCN(S(=O)(=O)N3CCN(C)CC3)[C@H](Cc3ccccc3)C2=O)OC1=O` (stereo partly drawn) [Example 143, 3-(2-imidazolyl)-2-(3R-benzyl-4-N-(N-methylpiperazyl)-sulfonyl-2-keto-piperazin-1-yl)-propionic acid Amide of (2'S,1'R,5S)-3-Ethyl-5-(1'-hydroxy-2'-amino-3'-cyclohexylpropyl)oxazolidin-2-one], for which the pIC50 is 8.77. This pIC50 lies 0.47 log units higher than the previous one.
For `CC(C)C[C@H](O)[C@H](O)[C@H](CC1CCCCC1)NC(=O)C(Cc1nccn1C(=O)OC(C)(C)C)N1CCN(S(=O)(=O)N2CCN(C)CC2)[C@H](Cc2ccccc2)C1=O` (stereo partly drawn) [Example 144, 3-(3N-tert-butyloxycarbonyl-2-imidazolyl)-2-(3R-benzyl-4N-(N-methylpiperazyl)-sulfonyl-2-keto-piperazin-1-yl)-propionic acid Amide of 2(S)-Amino-1-cyclohexyl-3(R),4(S)-dihydroxy-6-methylheptane], the pIC50 is 8.18.
In turn, `CC(C)C[C@H](O)[C@H](O)[C@H](CC1CCCCC1)NC(=O)C(Cc1ncc[nH]1)N1CCN(S(=O)(=O)N2CCN(C)CC2)[C@H](Cc2ccccc2)C1=O` (stereo partly drawn) [Example 145] had a pIC50 of 8.77.
For the molecule `C[C@@H]1CO[C@H]([C@H](O)[C@H](CC2CCCCC2)NC(=O)C(Cc2nccn2C(=O)OC(C)(C)C)N2CCN(S(=O)(=O)N3CCN(C)CC3)[C@H](Cc3ccccc3)C2=O)C1` (stereo partly drawn) [Example 146, 3-(3N-tert-butyloxycarbonyl-2-imidazolyl)-2-(3R-benzyl-4N-(N-methylpiperazyl)-sulfonyl-2-keto-piperazin-1-yl)-propionic acid Amide of 2(s)-(2(s)-Amino-3-cyclohexyl-1(R) hydroxy)propyl-4(S)-methyltetrahydrofuran], the pIC50 was 8.80. The pIC50 values of the last two molecules are within 0.2 log units of each other.
In the case of `CC(C)C[C@H](O)[C@H](O)[C@H](CC1CCCCC1)NC(=O)[C@H](Cc1cscn1)N1CCC[C@@](Cc2ccccc2)(NS(=O)(=O)N2CCN(C)CC2)C1=O` [Example 151, (2S)-(3S)-((N-methylpiperazinsulfonyl)-amino-3-phenylmethyl-2-oxo-1-piperidinyl)-3-(4-thiazolyl) propionic acid amide of (2S.3R,4S)-2-amino-1-cyclohexyl-3,4-dihydroxy-6-methylheptane] it was 9.49; in that of `Cc1ccc(S(=O)(=O)N[C@]2(Cc3ccccc3)CCCN([C@@H](Cc3c[nH]cn3)C(=O)N[C@@H](CC3CCCCC3)[C@@H](O)[C@@H](O)CC(C)C)C2=O)cc1` [Example 156], 8.85.
